Patent US7071226B1, “Amino-functionalized 1,2,4-trioxanes useful as antimalarial agents and process for preparation thereof” (Council of Scientific and Industrial Research, priority 2004, dated 2006)
Read-outs that look alike come from different tables or passages of the source.

Legend:
[1] = system: multidrug resistant strain of Plasmodium yoelii Nigeriensis; test: Antimalarial activity against multidrug resistant P. yoelii in Swiss mice (4-day treatment, observed till day 28); format: in vivo
Description: The antimalarial activity of the test compounds was evaluated in rodent using multidrug resistant strain of Plasmodium yoelii Nigeriensis in Swiss mice.
Random bred Swiss mice of either sex (20±2 gm) were inoculated intraperitoneally with 1×10^5 P. yoelii (MDR) parasites on day zero. Treatments with test compounds were administered to group of 5 mice each at different dose levels ranging between 12–96 mg/kg/day. Treatment was administered in groundnut oil intramuscularly and orally for 4 consecutive days (day 0–3). Blood smears from experimental mice were observed on day 4 and 7, day 10 and thereafter at regular intervals till day 28 or death of animal. Parasitaemia level on day 4 was compared with vehicle control group and percent suppression of parasitaemia in treated groups was calculated. […] The dose at which no parasitaemia develop during the observation period was reported as curative dose.

[2] = Plasmodium yoelii, po, 96 h, Swiss mice, 96 mg/kg/day, oral, day 0-3, in groundnut oil, read-out: % Suppression on Day 4
[3] = Plasmodium yoelii, po, 672 h, Swiss mice, 96 mg/kg/day, oral, day 0-3, read-out: Mice alive on day-28 (converted)
[4] = Plasmodium yoelii, im, 96 h, Swiss mice, 96 mg/kg/day, im, day 0-3, in groundnut oil, read-out: % Suppression on Day 4
[5] = Plasmodium yoelii, im, 672 h, Swiss mice, 96 mg/kg/day, im, day 0-3, read-out: Mice alive on day-28 (converted)
[6] = Plasmodium yoelii, po, 96 h, Swiss mice, 24 mg/kg/day, oral, day 0-3, in groundnut oil, read-out: % Suppression on Day 4
[7] = Plasmodium yoelii, po, 96 h, Swiss mice, 48 mg/kg/day, oral, day 0-3, in groundnut oil, read-out: % Suppression on Day 4
[8] = Plasmodium yoelii, po, 672 h, Swiss mice, 24 mg/kg/day, oral, day 0-3, read-out: Mice alive on day-28 (converted)
[9] = Plasmodium yoelii, po, 672 h, Swiss mice, 48 mg/kg/day, oral, day 0-3, read-out: Mice alive on day-28 (converted)
[10] = Swiss mice, 24 mg/kg/day, oral, day 0-3
[11] = Swiss mice, 48 mg/kg/day, oral, day 0-3, in groundnut oil
[12] = Swiss mice, 48 mg/kg/day, oral, day 0-3, 48 mg/kg/day
[13] = Plasmodium yoelii, po, 96 h, read-out: % Suppression on Day 4
[14] = Plasmodium yoelii, po, 672 h, read-out: Mice alive on day-28

**Q.** With `C=C(c1ccc(OC)cc1)C1COC2(CCC(Nc3ccc(OC)cc3)CC2)OO1` (stereo not drawn) as the compound, how does the melting point read?
**A.** The melting point was 123 to 124 °C.

**Q.** Which melting point does the source give for `C=C(c1ccccc1)C1COC2(CCC(Nc3ccc(F)cc3)CC2)OO1` (stereo not drawn) here?
**A.** Its melting point is 130 to 132 °C.

**Q.** Which inhibition in vivo at 96 mg/kg/day [1, 2] does the source give for `C=C(c1ccc(Cl)cc1)C1COC2(CCC(=O)CC2)OO1` (stereo not drawn) [Compound 3c, 3-[1-(4-Chloro-Phenyl)-Vinyl]-1,2,5-Trioxa-Spiro[5.5]undecan-9-one] here?
**A.** Its inhibition in vivo at 96 mg/kg/day is 100%.

**Q.** And the responders at 96 mg/kg/day [1, 3]?
**A.** Its responders at 96 mg/kg/day is 0%.

**Q.** What does the source list for `C=C(c1ccc(Cl)cc1)C1COC2(CCC(Nc3cccc(C(F)(F)F)c3)CC2)OO1` (stereo not drawn) [Compound 4co, {3-[1-(4-Chloro-phenyl)-vinyl]-1,2,5-trioxa-spiro[5.5]undec-9-yl}-(3-trifluoromethyl-phenyl)-amine]?
**A.** inhibition in vivo at 96 mg/kg/day [1, 4]: 73%; responders at 96 mg/kg/day [1, 5]: 0%; inhibition in vivo at 24 mg/kg/day [1, 6]: 100%; inhibition in vivo at 48 mg/kg/day [1, 7]: 100%; inhibition in vivo at 96 mg/kg/day [1, 2]: 100%; responders at 24 mg/kg/day [1, 8]: 60%; responders at 48 mg/kg/day [1, 9]: 100%; responders at 96 mg/kg/day [1, 3]: 100%

**Q.** Which results are given for `CCO[C@H]1O[C@@H]2O[C@@]3(C)CC[C@H]4[C@H](C)CC[C@@H]([C@H]1C)[C@@]24OO3` [β-Arteether, reference compound]?
**A.** Mice alive on day-28 [1, 10]: 1/5; % Suppression on Day 4 ([1]; Swiss mice, 24 mg/kg/day, oral, day 0-3, in groundnut oil): 100%; Mice alive on day-28 ([1]; Swiss mice, 48 mg/kg/day, oral, day 0-3): 5/5; % Suppression on Day 4 [1, 11]: 100%

**Q.** For `C=C(c1ccc(Cl)cc1)C1COC2(CCC(Nc3cc(Cl)cc(Cl)c3)CC2)OO1` (stereo not drawn) [Compound 4ce, {3-[1-(4-Chloro-phenyl)-vinyl]-1,2,5-trioxa-spiro[5.5]undec-9-yl}-(3,5-dichloro-phenyl)-amine], which inhibition in vivo at 24 mg/kg/day [1, 6] is on record?
**A.** The inhibition in vivo at 24 mg/kg/day was 100%.

**Q.** What about the inhibition in vivo at 48 mg/kg/day [1, 7] of the same compound?
**A.** Its inhibition in vivo at 48 mg/kg/day is 100%.

**Q.** And the responders at 24 mg/kg/day [1, 8]?
**A.** Its responders at 24 mg/kg/day is 40%.

**Q.** What about the “Mice alive on day-28” value [1, 12] of the same compound?
**A.** Its value is 4/5.

**Q.** With `C=C(c1ccccc1)C1COC2(CCC(Nc3ccc(Cl)cc3)CC2)OO1` (stereo not drawn) [Compound 4aa, (4-Chloro-Phenyl)-[3-(1-Phenyl-Vinyl)-1,2,5-Trioxa-Spiro[5.5]undec-9-yl]-Amine] as the compound, how does the inhibition in vivo at 96 mg/kg/day [1, 4] read?
**A.** Its inhibition in vivo at 96 mg/kg/day is 71%.

**Q.** What about the responders at 96 mg/kg/day [1, 5] of the same compound?
**A.** The responders at 96 mg/kg/day was 40%.

**Q.** And the inhibition in vivo at 48 mg/kg/day [1, 7]?
**A.** Its inhibition in vivo at 48 mg/kg/day is 100%.

**Q.** And the inhibition in vivo at 96 mg/kg/day [1, 2]?
**A.** The inhibition in vivo at 96 mg/kg/day was 100%.

**Q.** What about the responders at 48 mg/kg/day [1, 9] of the same compound?
**A.** Its responders at 48 mg/kg/day is 60%.

**Q.** What about the responders at 96 mg/kg/day [1, 3] of the same compound?
**A.** The responders at 96 mg/kg/day was 100%.

**Q.** Which “Mice alive on day-28” value ([1]; Swiss mice, 96 mg/kg/day, im, day 0-3) does the source give for `C=C(c1ccc(-c2ccccc2)cc1)C1COC2(CCC(=O)CC2)OO1` (stereo not drawn) [Compound 3b, 3-(1-Biphenyl-4yl-Vinyl)-1,2,5-Trioxaspiro[5.5]undec-9-one] here?
**A.** Its value is 1/5.

**Q.** What about the “% Suppression on Day 4” value ([1]; Swiss mice, 96 mg/kg/day, im, day 0-3, in groundnut oil) of the same compound?
**A.** Its value is 100%.

**Q.** Which results are given for `C=C(c1ccc(OC)cc1)C1COC2(CCC(Nc3cccc(C(F)(F)F)c3)CC2)OO1` (stereo not drawn) [Compound 4dm, {3-[1-(4-Methoxy-Phenyl)-Vinyl]-1,2,5-Trioxa-Spiro[5.5]undec-9-yl}-(3-Trifluoromethyl-Phenyl)-Amine]?
**A.** inhibition in vivo at 96 mg/kg/day [1, 4]: 100%; responders at 96 mg/kg/day [1, 5]: 0%; inhibition in vivo at 24 mg/kg/day [1, 6]: 100%; inhibition in vivo at 48 mg/kg/day [1, 7]: 100%; inhibition in vivo at 96 mg/kg/day [1, 2]: 100%; responders at 24 mg/kg/day [1, 8]: 100%; responders at 48 mg/kg/day [1, 9]: 100%; responders at 96 mg/kg/day [1, 3]: 100%

**Q.** Which results are given for `C=C(c1ccc(Cl)cc1)C1COC2(CCC(Nc3cccc4ccccc34)CC2)OO1` (stereo not drawn) [Compound 4ch, {3-[1-(4-Chloro-phenyl)-vinyl]-1,2,5-trioxa-spiro[5.5]undec-9-yl}-naphthalen-1-yl-amine]?
**A.** inhibition in vivo at 96 mg/kg/day [1, 2]: 100%; responders at 96 mg/kg/day [1, 3]: 40%

**Q.** For `C=C(c1ccc(Cl)cc1)C1COC2(CCC(Nc3ccc4c(c3)-c3ccccc3C4)CC2)OO1` (stereo not drawn), which melting point is on record?
**A.** Its melting point is 166 to 168 °C.

**Q.** For `C=C(c1ccccc1)C1COC2(CCC(Nc3ccccc3-c3ccccc3)CC2)OO1` (stereo not drawn) [Compound 4ac, Biphenyl-2-yl-[3-(1-Phenyl-Vinyl)-1,2,5-Trioxa-Spiro[5.5]undec-9-yl]Amine], which inhibition in vivo at 96 mg/kg/day [1, 4] is on record?
**A.** The inhibition in vivo at 96 mg/kg/day was 74%.

**Q.** What about the responders at 96 mg/kg/day [1, 5] of the same compound?
**A.** Its responders at 96 mg/kg/day is 0%.

**Q.** And the inhibition in vivo at 12 mg/kg/day ([1]; Plasmodium yoelii, po, 96 h, Swiss mice, 12 mg/kg/day, oral, day 0-3, in groundnut oil, read-out: % Suppression on Day 4)?
**A.** The inhibition in vivo at 12 mg/kg/day was 100%.

**Q.** What about the inhibition in vivo at 24 mg/kg/day [1, 6] of the same compound?
**A.** The inhibition in vivo at 24 mg/kg/day was 100%.

**Q.** And the responders at 12 mg/kg/day ([1]; Plasmodium yoelii, po, 672 h, Swiss mice, 12 mg/kg/day, oral, day 0-3, read-out: Mice alive on day-28)?
**A.** The responders at 12 mg/kg/day was 0%.

**Q.** And the responders at 24 mg/kg/day [1, 8]?
**A.** The responders at 24 mg/kg/day was 40%.

**Q.** And the “% Suppression on Day 4” value [1, 11]?
**A.** The value was 100%.

**Q.** And the “Mice alive on day-28” value [1, 12]?
**A.** Its value is 5/5.

**Q.** What about the “Mice alive on day-28” value ([1]; Swiss mice, 96 mg/kg/day, oral, day 0-3) of the same compound?
**A.** The value was 5/5.

**Q.** And the “% Suppression on Day 4” value ([1]; Swiss mice, 96 mg/kg/day, oral, day 0-3, in groundnut oil)?
**A.** Its value is 100%.

**Q.** What does the source list for `C=C(c1ccc(OC)cc1)C1COC2(CCC(Nc3cc(Cl)cc(Cl)c3)CC2)OO1` (stereo not drawn) [Compound 4dd, (3,5-Dichloro-Phenyl)-{3-[1-(4-Methoxy-Phenyl)-Vinyl]-1,2,5-Trioxa-Spiro[5.5]undec-9-yl}-Amine]?
**A.** inhibition in vivo at 96 mg/kg/day [1, 2]: 100%; responders at 96 mg/kg/day [1, 3]: 80%

**Q.** Which inhibition in vivo at 96 mg/kg/day [1, 4] does the source give for `C=C(c1ccc(C)cc1)C1COC2(CCC(Nc3ccccc3)CC2)OO1` (stereo not drawn) [Compound 4ea, Phenyl-[3-(1-p-Tolyl-Vinyl)-1,2,5-Trioxa-Spiro[5.5]undec-9-yl]-Amine] here?
**A.** The inhibition in vivo at 96 mg/kg/day was 96%.

**Q.** What about the responders at 96 mg/kg/day [1, 5] of the same compound?
**A.** The responders at 96 mg/kg/day was 0%.

**Q.** And the inhibition in vivo at 96 mg/kg/day [1, 2]?
**A.** The inhibition in vivo at 96 mg/kg/day was 100%.

**Q.** What about the responders at 96 mg/kg/day [1, 3] of the same compound?
**A.** Its responders at 96 mg/kg/day is 100%.

**Q.** What does the source list for `C=C(c1ccc(C)cc1)C1COC2(CCC(Nc3cc(Cl)cc(Cl)c3)CC2)OO1` (stereo not drawn) [Compound 4ee, (3,5-Dichloro-Phenyl)-[3-(1-Tolyl-Vinyl)-1,2,5-Trioxa-Spiro[5.5]undec-9-yl]-Amine]?
**A.** Mice alive on day-28 [1, 10]: 0/5; % Suppression on Day 4 ([1]; Swiss mice, 24 mg/kg/day, oral, day 0-3, in groundnut oil, 24 mg/kg/day): 81%; % Suppression on Day 4 [1, 11]: 100%; Mice alive on day-28 [1, 12]: 2/5

**Q.** With `C=C(c1ccc(OC)cc1)C1COC2(CCC(Nc3ccccc3)CC2)OO1` (stereo not drawn) [Compound 4da, {3-[1-(4-Methoxy-Phenyl)-Vinyl]-1,2,5-Trioxa-Spiro[5.5]undec-9-yl}-Phenyl-Amine] as the compound, how does the inhibition in vivo at 96 mg/kg/day [1, 4] read?
**A.** Its inhibition in vivo at 96 mg/kg/day is 81%.

**Q.** And the responders at 96 mg/kg/day [1, 5]?
**A.** Its responders at 96 mg/kg/day is 0%.

**Q.** What about the inhibition in vivo at 96 mg/kg/day [1, 2] of the same compound?
**A.** The inhibition in vivo at 96 mg/kg/day was 100%.

**Q.** And the responders at 96 mg/kg/day [1, 3]?
**A.** The responders at 96 mg/kg/day was 0%.

**Q.** For `CCN(CC)CCCC(C)Nc1ccnc2cc(Cl)ccc12` (stereo not drawn) [Chloroquine, reference compound], which inhibition in vivo at 24 mg/kg/day [1, 13] is on record?
**A.** Its inhibition in vivo at 24 mg/kg/day is 100%.

**Q.** And the inhibition in vivo at 48 mg/kg/day [1, 13]?
**A.** The inhibition in vivo at 48 mg/kg/day was 100%.

**Q.** And the responders at 24 mg/kg/day [1, 14]?
**A.** Its responders at 24 mg/kg/day is 0%.

**Q.** And the responders at 48 mg/kg/day [1, 14]?
**A.** The responders at 48 mg/kg/day was 40%.

**Q.** Which inhibition in vivo at 96 mg/kg/day [1, 2] does the source give for `C=C(c1ccc(Cl)cc1)C1COC2(CCC(Nc3ccc(-c4ccccc4)cc3)CC2)OO1` (stereo not drawn) [Compound 4ck, Biphenyl-4-yl-{3-[1-(4-Chloro-Phenyl)-Vinyl]-1,2,5-Trioxa-Spiro[5.5]undec-9-yl}-Amine] here?
**A.** The inhibition in vivo at 96 mg/kg/day was 100%.

**Q.** What about the responders at 96 mg/kg/day [1, 3] of the same compound?
**A.** The responders at 96 mg/kg/day was 40%.
